Data as given in PubChem BioAssay AID256 (DTP/NCI, 2004).
Toxic doses and inconclusive results are not listed. Rule for the calls: active = survival T/C of 150% or more; inactive = T/C below 125% in these data.

System: CD2F1 mice, L1210 leukemia ip, survival T/C
Experiment: NCI In Vivo Anticancer Drug Screen. Data for tumor model L1210 Leukemia (intraperitoneal) in CD2F1 (CDF1) mice
Settings: higher = longer survival
Procedure, shortened: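 Compound-dosed mice with transplantable tumor versus matched vehicle controls; endpoint ratio T/C reported.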

[1] = endpoint: mean survival time, dose: 25.0 mg/kg/injection, schedule: Q04DX002 (ip), vehicle: saline with Tween-80
[2] = endpoint: mean survival time, dose: 100.0 mg/kg/injection, schedule: Q04DX003 (ip), vehicle: saline with Tween-80
[3] = endpoint: mean survival time, dose: 200.0 mg/kg/injection, schedule: Q04DX003 (ip), vehicle: saline with Tween-80
[4] = endpoint: mean survival time, dose: 400.0 mg/kg/injection, schedule: Q04DX003 (ip), vehicle: saline with Tween-80
[5] = endpoint: mean survival time, dose: 100.0 mg/kg/injection, schedule: Q04DX002 (ip), vehicle: saline with Tween-80
[6] = endpoint: mean survival time, dose: 100.0 mg/kg/injection, schedule: Q01DX001 (ip), vehicle: saline with Tween-80
[7] = endpoint: mean survival time, dose: 200.0 mg/kg/injection, schedule: Q01DX001 (ip), vehicle: saline with Tween-80
[8] = endpoint: mean survival time, dose: 400.0 mg/kg/injection, schedule: Q01DX001 (ip), vehicle: saline with Tween-80
[9] = endpoint: mean survival time, dose: 200.0 mg/kg/injection, schedule: Q04DX002 (ip), vehicle: saline with Tween-80
[10] = endpoint: mean survival time, dose: 400.0 mg/kg/injection, schedule: Q04DX002 (ip), vehicle: saline with Tween-80
[11] = endpoint: mean survival time, dose: 100.0 mg/kg/injection, schedule: Q01DX009 (ip), vehicle: saline with Tween-80
[12] = endpoint: mean survival time, dose: 200.0 mg/kg/injection, schedule: Q01DX009 (ip), vehicle: saline with Tween-80
[13] = endpoint: mean survival time, dose: 400.0 mg/kg/injection, schedule: Q01DX009 (ip), vehicle: saline with Tween-80

Measured: T/C

Cc1c(N)nc(C(CC(N)=O)NCC(N)C(N)=O)nc1C(=O)NC(C(=O)NC(C)C(O)C(C)C(=O)NC(C(=O)NCCc1nc(-c2nc(C(=O)NCCCNCCCc3ccccn3)cs2)cs1)C(C)O)C(OC1OC(CO)C(O)C(O)C1OC1OC(CO)C(O)C(OC(N)=O)C1O)c1cnc[nH]1 (configuration not stated)
inactive: endpoint: mean survival time, dose: 0.2 mg/kg/injection, schedule: Q01DX009 (ip), vehicle: water 101 % of control | endpoint: mean survival time, dose: 0.4 mg/kg/injection, schedule: Q01DX009 (ip), vehicle: water 107 % of control | endpoint: mean survival time, dose: 0.8 mg/kg/injection, schedule: Q01DX009 (ip), vehicle: water 98 % of control | endpoint: mean survival time, dose: 1.6 mg/kg/injection, schedule: Q01DX009 (ip), vehicle: water 104 % of control | endpoint: mean survival time, dose: 3.2 mg/kg/injection, schedule: Q01DX009 (ip), vehicle: water 104 % of control | endpoint: mean survival time, dose: 6.25 mg/kg/injection, schedule: Q01DX009 (ip), vehicle: saline 111 % of control | endpoint: mean survival time, dose: 6.4 mg/kg/injection, schedule: Q01DX009 (ip), vehicle: water 107 % of control | endpoint: mean survival time, dose: 12.5 mg/kg/injection, schedule: Q01DX009 (ip), vehicle: saline 103 % of control | endpoint: mean survival time, dose: 25.0 mg/kg/injection, schedule: Q01DX009 (ip), vehicle: saline 108 % of control | endpoint: mean survival time, dose: 50.0 mg/kg/injection, schedule: Q01DX009 (ip), vehicle: saline 105 % of control

CC(C)OC(=O)Nc1ccncc1
inactive: [1] 104 % of control

OCC(Cl)(Cl)Cl
inactive: [2] 93 % of control | [3] 97 % of control | [4] 101 % of control

Nc1ccc(SCCCc2c(N)nc(N)nc2N)cc1
inactive: endpoint: mean survival time, dose: 100.0 mg/kg/injection, schedule: Q01DX001 (ip), vehicle: other 100 % of control | endpoint: mean survival time, dose: 200.0 mg/kg/injection, schedule: Q01DX001 (ip), vehicle: other 96 % of control

CCOc1ccccc1C=C(C#N)C#N
inactive: [1] 96 % of control | endpoint: mean survival time, dose: 50.0 mg/kg/injection, schedule: Q04DX002 (ip), vehicle: saline with Tween-80 96 % of control | [5] 93 % of control

CCCCOC(=O)/C=C(\CC(=O)OCCCC)C(=O)OCCCC
inactive: [6] 97 % of control | [7] 97 % of control | [8] 103 % of control

CS(=O)(=O)C(Cl)(Cl)S(C)(=O)=O
inactive: endpoint: mean survival time, dose: 6.25 mg/kg/injection, schedule: Q04DX003 (ip), vehicle: saline with Tween-80 95 % of control | endpoint: mean survival time, dose: 12.5 mg/kg/injection, schedule: Q04DX003 (ip), vehicle: saline with Tween-80 91 % of control | endpoint: mean survival time, dose: 25.0 mg/kg/injection, schedule: Q04DX003 (ip), vehicle: saline with Tween-80 91 % of control

O=C1C=Cc2ccccc2/C1=C/c1nc(/C=C/c2ccccc2)oc1O
inactive: [5] 117 % of control | [9] 113 % of control | [10] 105 % of control

CSCCCCCCSC
inactive: [2] 95 % of control | [3] 101 % of control

C/C(=N/Nc1ccc([N+](=O)[O-])cc1[N+](=O)[O-])C(C)C
inactive: endpoint: mean survival time, dose: 75.0 mg/kg/injection, schedule: Q04DX002 (ip), vehicle: saline with Tween-80 95 % of control | endpoint: mean survival time, dose: 150.0 mg/kg/injection, schedule: Q04DX002 (ip), vehicle: saline with Tween-80 98 % of control | endpoint: mean survival time, dose: 300.0 mg/kg/injection, schedule: Q04DX002 (ip), vehicle: saline with Tween-80 98 % of control

CC12CCC3C(CC=C4CC([Se]C(=N)N)CCC43C)C1CCC2=O (configuration not stated)
inactive: endpoint: mean survival time, dose: 75.0 mg/kg/injection, schedule: Q01DX001 (ip), vehicle: steriod suspending solution 95 % of control | endpoint: mean survival time, dose: 150.0 mg/kg/injection, schedule: Q01DX001 (ip), vehicle: steriod suspending solution 95 % of control | endpoint: mean survival time, dose: 300.0 mg/kg/injection, schedule: Q01DX001 (ip), vehicle: steriod suspending solution 95 % of control

Nc1nc(CCCCc2ccccc2)c(N=Nc2ccc(Cl)cc2)c(=O)[nH]1
inactive: [11] 90 % of control | [12] 90 % of control | [13] 87 % of control

C=C(C)C1CNC(C(=O)O)C1CC(=O)O (configuration not stated)
inactive: endpoint: mean survival time, dose: 6.25 mg/kg/injection, schedule: Q04DX003 (ip), vehicle: saline sonified 97 % of control | endpoint: mean survival time, dose: 12.5 mg/kg/injection, schedule: Q04DX003 (ip), vehicle: saline sonified 95 % of control | endpoint: mean survival time, dose: 25.0 mg/kg/injection, schedule: Q04DX003 (ip), vehicle: saline sonified 109 % of control

O=C1CN=C(c2ccccc2)O1
inactive: endpoint: median survival time, dose: 50.0 mg/kg/injection, schedule: Q04DX002 (ip), vehicle: saline with Tween-80 100 % of control | endpoint: median survival time, dose: 100.0 mg/kg/injection, schedule: Q04DX002 (ip), vehicle: saline with Tween-80 100 % of control | endpoint: median survival time, dose: 200.0 mg/kg/injection, schedule: Q04DX002 (ip), vehicle: saline with Tween-80 111 % of control | endpoint: median survival time, dose: 400.0 mg/kg/injection, schedule: Q04DX002 (ip), vehicle: saline with Tween-80 100 % of control

O=C(CCC(NC(=O)OCc1ccccc1)C(=O)O)OCc1ccccc1 (configuration not stated)
inactive: [2] 100 % of control | [3] 101 % of control | [4] 94 % of control

O=C1OC2CCC(Br)CC2C=C1C1CCC([N+](=O)[O-])CC1 (configuration not stated)
inactive: [5] 108 % of control | [9] 100 % of control | [10] 89 % of control

Cc1cc(O)c(O)c([N+](=O)[O-])c1
inactive: [11] 95 % of control | [12] 97 % of control | [13] 97 % of control

CC(=O)OCC1OC(Oc2c(Br)cc(Br)cc2Br)C(OC(C)=O)C(OC(C)=O)C1OC(C)=O (configuration not stated)
inactive: [11] 96 % of control | [12] 94 % of control | [13] 96 % of control

Cc1ccc(S(=O)(=O)N(CC(=O)O)c2cccc(Cl)c2)cc1
inactive: endpoint: mean survival time, dose: 100.0 mg/kg/injection, schedule: Q01DX009 (ip), vehicle: Klucel (hydroxypropylcellulose) (HPC) 101 % of control | endpoint: mean survival time, dose: 200.0 mg/kg/injection, schedule: Q01DX009 (ip), vehicle: Klucel (hydroxypropylcellulose) (HPC) 98 % of control | endpoint: mean survival time, dose: 400.0 mg/kg/injection, schedule: Q01DX009 (ip), vehicle: Klucel (hydroxypropylcellulose) (HPC) 100 % of control

CC1(C)C(N2CCOCC2)C(c2ccccc2)S1(=O)=O (configuration not stated)
inactive: [6] 101 % of control | [7] 105 % of control | [8] 105 % of control

OC(COc1ccccc1Cl)COc1ccccc1Cl
inactive: endpoint: mean survival time, dose: 100.0 mg/kg/injection, schedule: Q04DX003 (ip), vehicle: saline + alcohol 101 % of control | endpoint: mean survival time, dose: 200.0 mg/kg/injection, schedule: Q04DX003 (ip), vehicle: saline + alcohol 95 % of control | endpoint: mean survival time, dose: 400.0 mg/kg/injection, schedule: Q04DX003 (ip), vehicle: saline + alcohol 95 % of control

NN1CCOC1=O
inactive: [6] 97 % of control | [7] 100 % of control

O=S(=O)(Nc1ccccn1)c1ccc(Cl)cc1
inactive: [2] 91 % of control | [3] 95 % of control | [4] 90 % of control

Cc1ccccc1NC(=S)Nc1ccccn1
inactive: [11] 95 % of control | [12] 98 % of control | [13] 93 % of control

O=C1CN(CO)C(=O)N1CO
inactive: endpoint: median survival time, dose: 25.0 mg/kg/injection, schedule: Q01DX009 (ip), vehicle: Klucel (hydroxypropylcellulose) (HPC) 110 % of control | endpoint: median survival time, dose: 50.0 mg/kg/injection, schedule: Q01DX009 (ip), vehicle: Klucel (hydroxypropylcellulose) (HPC) 110 % of control | endpoint: median survival time, dose: 100.0 mg/kg/injection, schedule: Q01DX009 (ip), vehicle: Klucel (hydroxypropylcellulose) (HPC) 116 % of control | endpoint: median survival time, dose: 200.0 mg/kg/injection, schedule: Q01DX009 (ip), vehicle: Klucel (hydroxypropylcellulose) (HPC) 112 % of control | endpoint: median survival time, dose: 400.0 mg/kg/injection, schedule: Q01DX009 (ip), vehicle: Klucel (hydroxypropylcellulose) (HPC) 96 % of control

CN(C)c1nc(-c2ccncc2)nc(N(C)C)n1
inactive: [5] 92 % of control

CCC1(O)C(=O)OCc2c1cc1n(c2=O)Cc2cc3ccc(CN)cc3nc2-1 (configuration not stated)
inactive: endpoint: median survival time, dose: 10.0 mg/kg/injection, schedule: Q04DX002 (ip), vehicle: saline with Tween-80 109 % of control | endpoint: median survival time, dose: 10.0 mg/kg/injection, schedule: Q04DX002 (ip), vehicle: water 102 % of control | endpoint: median survival time, dose: 20.0 mg/kg/injection, schedule: Q04DX002 (ip), vehicle: saline with Tween-80 109 % of control | endpoint: median survival time, dose: 20.0 mg/kg/injection, schedule: Q04DX002 (ip), vehicle: water 102 % of control | endpoint: median survival time, dose: 40.0 mg/kg/injection, schedule: Q04DX002 (ip), vehicle: saline with Tween-80 106 % of control | endpoint: median survival time, dose: 40.0 mg/kg/injection, schedule: Q04DX002 (ip), vehicle: water 107 % of control | endpoint: median survival time, dose: 80.0 mg/kg/injection, schedule: Q04DX002 (ip), vehicle: saline with Tween-80 113 % of control | endpoint: median survival time, dose: 80.0 mg/kg/injection, schedule: Q04DX002 (ip), vehicle: water 108 % of control

C#CCOCCBr
inactive: endpoint: mean survival time, dose: 50.0 mg/kg/injection, schedule: Q01DX009 (ip), vehicle: acetone 94 % of control | endpoint: mean survival time, dose: 100.0 mg/kg/injection, schedule: Q01DX009 (ip), vehicle: acetone 100 % of control | endpoint: mean survival time, dose: 200.0 mg/kg/injection, schedule: Q01DX009 (ip), vehicle: acetone 103 % of control
